Measured values reported in US20250066386A1, “INHIBITORS OF KRAS” (BIOMEA FUSION, INC., priority 2022, published 2025).
Read-outs that look alike come from different tables or passages of the source.

Tested on: human KRAS G12C mutated cell line MIA PaCa-2
Experiment: KRas G12C in vitro inhibitory activity: cell proliferation, CellTiter-Glo
Type: cell-based
Conditions: Homo sapiens
Description: The present example evaluates the ability of compounds provided herein to inhibit proliferation of KRAS mutant cells.
The inhibitory effect on cell proliferation was investigated in the human KRAS G12C mutated cell line MIA PaCa-2 (Yunis et al., 1977, Int. J. Cancer 19(1):128-135; ATCC catalog no. CRL-1420). Cells were maintained in RPMI-1640 medium (ThermoFisher catalog no. 61870036) supplemented with 10% of Heat Inactivated FBS (ThermoFisher catalog no. A31605) and 1% Pen-Strep (ThermoFisher catalog no. 10378016) and cultured at 37° C. in a humidified incubator with 5% CO2. Cells were grown by adhering to culture flasks, and maintained at 70%-80% confluency.
ATP is present in all metabolically active cells and is considered as a marker for viable cells. The number of metabolically active live cells in culture was determined using the CellTiter-Glo kit (Promega catalog no. G7572), an ATP monitoring system based on the production of luminescence by the reaction of ATP with added UltraGlo® recombinant luciferase (Kawano et al., 2016, PLOS One, 8; 11(7):e0158888), according to the supplier's experimental recommendations. The cell proliferation assay was based on a 96 well plate format.
Test compounds were dissolved at 10 mM in DMSO (Sigma catalog no. D8418; purity >99.9%) and stored at −20° C. Eight concentrations of test compound were assessed in duplicate in an individual test occasion in parallel in the selected cell lines. MRTX-849 and AMG-510 were used as reference compounds and tested in duplicate at eight concentrations. 100% of proliferation is represented by the untreated cells (0.2% DMSO).
On the day of the experiment (TO), cells were detached with TrypLE (ThermoFisher catalog no. 12604054), quantified using the cell viability analyser NucleoCounter (Chemometec NC-200) and resuspended in fresh medium at a cell density of about 5000 cells per 200 μL medium. 200 μL of cell suspension were added to each well of a 96 well plate.
Two hours after seeding cells, compounds were added at desired concentrations using a D300e compound dispenser (Life Sciences Tecan D300) with shaking after each compound addition. Assay plates were incubated at 37° C. in a humidified incubator with 5% CO2.
(§1) To measure 3 day inhibition of cell proliferation on day 3 (T3), assay plates were equilibrated to room temperature for approximately 15 min, and the Promega CellTiterGlo® reagent was added at 40 μL/well. Contents were mixed for 5 min on an orbital shaker to induce cell lysis, and then incubated at room temperature for an additional 10 min in the dark to stabilize the luminescent signal. Luminescence was read using a GloMax GM300 plate reader (Promega) using the luminescence for 96 well plate standard protocol.
as §1, with “measure 7” for “measure 3”, “(T3), 150 μL of growth media was removed from each well of the assay plates and replaced with 150 uL fresh growth media, and fresh compounds added using a D300e compound dispenser (Life Sciences Tecan D300) at desired concentrations with shaking between each compound addition. Assay plates were incubated at 37° C. in a humidified incubator with 5% CO2. On day 7 (T7)” for “(T3),”
Data was expressed as % of inhibition compared to the 0.2% DMSO negative no drug control, and is calculated as follows: % inhibition=100−[(RLU sample)×100/(RLU average controls*)], where * indicates the average for 0.2% DMSO.
Results were analyzed by GraphPad (Prism) and IC50 values were calculated by non-linear regression using four parameter-logistic equation. […]

[1] = MIA PaCa-2, 72 h, 3 day inhibition of cell proliferation, CellTiter-Glo luminescence, read-out: MIA PaCa-2 Day 3 IC50
[2] = MIA PaCa-2, 7 day inhibition of cell proliferation, medium and compound renewed on day 3, CellTiter-Glo luminescence, read-out: MIA PaCa-2 Day 7 IC50

Row | SMILES | IC50 [1] [nM] | IC50 [2] [nM]
1 | CCn1c(-c2cccnc2[C@H](C)OC)c2c3cc(ccc31)-c1cccc(c1)C[C@H](NC(=O)[C@H](C(C)C)N(C)C(=O)[C@H]1CCN(C(=O)C#CCN3CCOCC3)C1)C(=O)N1CCC[C@H](CC(=O)OC(C)(C)C2)C1 [Compound 108, (3S)—N-((2S)-1-(((6^3R,4S)-1^1-ethyl-1^2-(2-((S)-1-methoxyethyl)pyridin-3-yl)-10,10-dimethyl-5,8-dioxo-1^1H-9-oxa-1(5,3)-indola-6(1,3)-piperidina-2(1,3)-benzenacycloundecaphane-4-yl)amino)-3-methyl-1-oxobutan-2-yl)-N-methyl-1-(4-morpholinobut-2-ynoyl)pyrrolidine-3-carboxamide] | > 100 | –
2 | CCn1c(-c2cccnc2[C@H](C)OC)c2c3cc(ccc31)-c1cccc(c1)C[C@H](NC(=O)[C@H](C(C)C)N(C)C(=O)[C@H]1CCN(C/C=C/C(=O)N3CC(F)(F)C3)C1)C(=O)N1CCC[C@H](N1)C(=O)OCC(C)(C)C2 (atropisomer, axis not shown) [Compound 115, (3S)-1-((E)-4-(3,3-difluoroazetidin-1-yl)-4-oxobut-2-en-1-yl)-N-((2S)-1-(((6^3S,4S)-1^1-ethyl-1^2-(2-((S)-1-methoxyethyl)pyridin-3-yl)-10,10-dimethyl-5,7-dioxo-6^1,6^2,6^3,6^4,6^5,6^6-hexahydro-1^1H-8-oxa-1(5,3)-indola-6(1,3)-pyridazina-2(1,3)-benzenacycloundecaphane-4-yl)amino)-3-methyl-1-oxobutan-2-yl)-N-methylpyrrolidine-3-carboxamide] | < 1 | –
3 | CCn1c(-c2cccnc2[C@H](C)OC)c2c3cc(ccc31)-c1csc(n1)C[C@H](NC(=O)[C@H](C(C)C)N(C)C(=O)[C@H]1CCN(CC#CC(=O)N(C)C)C1)C(=O)N1CCC[C@H](N1)C(=O)OCC(C)(C)C2 (atropisomer, axis not shown) [Compound 113, (3S)-1-(4-(dimethylamino)-4-oxobut-2-yn-1-yl)-N-((2S)-1-(((6^3S,4S,Z)-1^1-ethyl-1^2-(2-((S)-1-methoxyethyl)pyridin-3-yl)-10,10-dimethyl-5,7-dioxo-6^1,6^2,6^3,6^4,6^5,6^6-hexahydro-1^1H-8-oxa-2(4,2)-thiazola-1(5,3)-indola-6(1,3)-pyridazinacycloundecaphane-4-yl)amino)-3-methyl-1-oxobutan-2-yl)-N-methylpyrrolidine-3-carboxamide] | < 1 | –
4 | CCn1c(-c2cccnc2[C@H](C)OC)c2c3cc(ccc31)-c1cccc(c1)C[C@H](NC(=O)[C@H](C(C)C)N(C)C(=O)C1CCN(CC#CC(=O)N(C)C)CC1)C(=O)N1CCC[C@H](N1)C(=O)OCC(C)(C)C2 (atropisomer, axis not shown) [Compound 109, 1-(4-(dimethylamino)-4-oxobut-2-yn-1-yl)-N-((2S)-1-(((6^3S,4S)-1^1-ethyl-1^2-(2-((S)-1-methoxyethyl)pyridin-3-yl)-10,10-dimethyl-5,7-dioxo-6^1,6^2,6^3,6^4,6^5,6^6-hexahydro-1^1H-8-oxa-1(5,3)-indola-6(1,3)-pyridazina-2(1,3)-benzenacycloundecaphane-4-yl)amino)-3-methyl-1-oxobutan-2-yl)-N-methylpiperidine-4-carboxamide] | 1 to 10 | –
5 | CCn1c(-c2cccnc2[C@H](C)OC)c2c3cc(ccc31)-c1csc(n1)C[C@H](NC(=O)[C@H](C(C)C)N(C)C(=O)[C@H]1CCN(CC#CC(=O)N3CC(F)(F)C3)C1)C(=O)N1CCC[C@H](N1)C(=O)OCC(C)(C)C2 (atropisomer, axis not shown) [Compound 117, (3S)-1-(4-(3,3-difluoroazetidin-1-yl)-4-oxobut-2-yn-1-yl)-N-((2S)-1-(((6^3S,4S,Z)-1^1-ethyl-1^2-(2-((S)-1-methoxyethyl)pyridin-3-yl)-10,10-dimethyl-5,7-dioxo-6^1,6^2,6^3,6^4,6^5,6^6-hexahydro-1^1H-8-oxa-2(4,2)-thiazola-1(5,3)-indola-6(1,3)-pyridazinacycloundecaphane-4-yl)amino)-3-methyl-1-oxobutan-2-yl)-N-methylpyrrolidine-3-carboxamide] | > 100 | 1 to 10
6 | CCn1c(-c2cccnc2[C@H](C)OC)c2c3cc(ccc31)-c1cccc(c1)C[C@H](NC(=O)[C@H](C(C)C)N(C)C(=O)[C@H]1CCN(C(=O)C#CCN3CCOCC3)C1)C(=O)N1CCC[C@@H](CC(=O)OC(C)(C)C2)C1 [Compound 106, (3S)—N-((2S)-1-(((6^3S,4S)-1^1-ethyl-1^2-(2-((S)-1-methoxyethyl)pyridin-3-yl)-10,10-dimethyl-5,8-dioxo-1^1H-9-oxa-1(5,3)-indola-6(1,3)-piperidina-2(1,3)-benzenacycloundecaphane-4-yl)amino)-3-methyl-1-oxobutan-2-yl)-N-methyl-1-(4-morpholinobut-2-ynoyl)pyrrolidine-3-carboxamide] | > 100 | –
7 | CCn1c(-c2cccnc2[C@H](C)OC)c2c3cc(ccc31)-c1csc(n1)C[C@H](NC(=O)[C@H](C(C)C)N(C)C(=O)[C@H]1CCN(C/C=C/C(=O)N(C)C)C1)C(=O)N1CCC[C@H](N1)C(=O)OCC(C)(C)C2 (atropisomer, axis not shown) [Compound 111, (3S)-1-((E)-4-(dimethylamino)-4-oxobut-2-en-1-yl)-N-((2S)-1-(((6^3S,4S,Z)-1^1-ethyl-1^2-(2-((S)-1-methoxyethyl)pyridin-3-yl)-10,10-dimethyl-5,7-dioxo-6^1,6^2,6^3,6^4,6^5,6^6-hexahydro-1^1H-8-oxa-2(4,2)-thiazola-1(5,3)-indola-6(1,3)-pyridazinacycloundecaphane-4-yl)amino)-3-methyl-1-oxobutan-2-yl)-N-methylpyrrolidine-3-carboxamide] | 10 to 100 | –
8 | CCn1c(-c2cccnc2[C@H](C)OC)c2c3cc(ccc31)-c1csc(n1)C[C@H](NC(=O)[C@H](C(C)C)N(C)C(=O)N1[C@H](C)CN(CC#CC(=O)N(C)C)C[C@H]1C)C(=O)N1CCC[C@H](N1)C(=O)OCC(C)(C)C2 [Compound 105, (2R,6R)-4-(4-(dimethylamino)-4-oxobut-2-yn-1-yl)-N-((2S)-1-(((6^3S,4S,Z)-1^1-ethyl-1^2-(2-((S)-1-methoxyethyl)pyridin-3-yl)-10,10-dimethyl-5,7-dioxo-6^1,6^2,6^3,6^4,6^5,6^6-hexahydro-1^1H-8-oxa-2(4,2)-thiazola-1(5,3)-indola-6(1,3)-pyridazinacycloundecaphane-4-yl)amino)-3-methyl-1-oxobutan-2-yl)-N,2,6-trimethylpiperazine-1-carboxamide] | 10 to 100 | 10 to 100
9 | C=CC(=O)N1CC[C@H](C(=O)N(C)[C@H](C(=O)N[C@H]2Cc3cccc(c3)-c3ccc4c(c3)c(c(-c3cccnc3[C@H](C)OC)n4CC)CC(C)(C)n3cc(nn3)[C@@H]3CCCN(N3)C2=O)C(C)C)C1 [Compound 104, (3S)-1-acryloyl-N-((2S)-1-(((6^3S,8S,Z)-21-ethyl-2^2-(2-((S)-1-methoxyethyl)pyridin-3-yl)-4,4-dimethyl-7-oxo-6^1,6^2,6^3,6^4,6^5,6^6-hexahydro-2^1H,5^1H-2(5,3)-indola-6(3,1)-pyridazina-5(1,4)-triazola-1(1,3)-benzenacyclononaphane-8-yl)amino)-3-methyl-1-oxobutan-2-yl)-N-methylpyrrolidine-3-carboxamide] | > 100 | –
